“And” between values parts separate entries of the source, which are not always exact repeats. Identical values can stand only once. Toxic doses and inconclusive results are not listed. How the source made its calls: active means survival T/C of 150% or more; inactive means T/C below 125% in these data.
System: P388 leukemia ip, CD2F1 mice, survival T/C
Assay: NCI In Vivo Anticancer Drug Screen. Data for tumor model P388 Leukemia (intraperitoneal) in CD2F1 (CDF1) mice
Conditions: endpoint: median survival time, higher = longer survival
Summary of the method: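 Mice carrying the transplanted tumor received test compound or vehicle. Survival was recorded in each group, and the value is the treated-group measurement divided by that of the vehicle-treated control group.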

[1] = dose: 50.0 mg/kg/injection, schedule: Q01DX005 (ip), vehicle: Klucel (hydroxypropylcellulose) (HPC)
[2] = dose: 100.0 mg/kg/injection, schedule: Q01DX005 (ip), vehicle: Klucel (hydroxypropylcellulose) (HPC)
[3] = dose: 200.0 mg/kg/injection, schedule: Q01DX005 (ip), vehicle: Klucel (hydroxypropylcellulose) (HPC)
[4] = dose: 6.25 mg/kg/injection, schedule: Q01DX009 (ip), vehicle: saline with Tween-80
[5] = dose: 12.5 mg/kg/injection, schedule: Q01DX009 (ip), vehicle: saline with Tween-80
[6] = dose: 25.0 mg/kg/injection, schedule: Q01DX009 (ip), vehicle: saline with Tween-80
[7] = dose: 50.0 mg/kg/injection, schedule: Q01DX009 (ip), vehicle: saline with Tween-80
[8] = dose: 100.0 mg/kg/injection, schedule: Q01DX009 (ip), vehicle: saline with Tween-80
[9] = dose: 60.0 mg/kg/injection, schedule: Q01DX005 (ip), vehicle: saline with Tween-80
[10] = dose: 120.0 mg/kg/injection, schedule: Q01DX005 (ip), vehicle: saline with Tween-80
[11] = dose: 240.0 mg/kg/injection, schedule: Q01DX005 (ip), vehicle: saline with Tween-80
[12] = dose: 50.0 mg/kg/injection, schedule: Q01DX005 (ip), vehicle: saline with Tween-80
[13] = dose: 100.0 mg/kg/injection, schedule: Q01DX005 (ip), vehicle: saline with Tween-80
[14] = dose: 200.0 mg/kg/injection, schedule: Q01DX005 (ip), vehicle: saline with Tween-80
[15] = dose: 100.0 mg/kg/injection, schedule: Q01DX001 (ip), vehicle: saline with Tween-80
[16] = dose: 200.0 mg/kg/injection, schedule: Q01DX001 (ip), vehicle: saline with Tween-80
[17] = dose: 400.0 mg/kg/injection, schedule: Q01DX001 (ip), vehicle: saline with Tween-80
[18] = dose: 200.0 mg/kg/injection, schedule: Q01DX009 (ip), vehicle: saline with Tween-80
[19] = dose: 400.0 mg/kg/injection, schedule: Q01DX009 (ip), vehicle: saline with Tween-80

Measured: T/C

Cc1nc2ccccc2c(=O)n1-c1ccc(-c2n[nH]c(=S)n2-c2ccccc2)cc1
inactive: [1] 105 % of control | [2] 110 % of control | [3] 102 % of control

O=C1OC2C(O1)C1(c3ccccc3)C(=O)C2(c2ccccc2)C(c2ccccc2)=C1c1ccccc1 (stereo not given)
inactive: [4] 107 % of control and 96 % of control | [5] 106 % of control and 94 % of control | [6] 101 % of control and 96 % of control | [7] 98 % of control and 105 % of control | [8] 89 % of control

N#COc1ccc(-c2ccccc2)cc1
inactive: [9] 90 % of control | [10] 87 % of control | [11] 86 % of control and 90 % of control

CN1Cc2cc(Cl)ccc2N(C)Cc2cc(Cl)ccc21
inactive: [12] 101 % of control | [13] 90 % of control | [14] 92 % of control

CCOC(=O)C(C)(C)Oc1ccc(N=[N+]=[N-])cc1
inactive: [9] 100 % of control | [10] 104 % of control | [11] 109 % of control

COc1cc2cc3c(nc2cc1OC)OC(=O)/C3=C\c1ccccc1
inactive: [12] 99 % of control | [13] 98 % of control | [14] 103 % of control

FC(F)(F)C1(C(F)(F)F)O[P+](c2ccccc2)(c2ccccc2)c2ccccc21
inactive: [1] 100 % of control | [2] 110 % of control | [3] 102 % of control

Cc1c(-c2ccccc2)oc(=O)c(Cl)c1N(C)c1ccccc1
inactive: [15] 94 % of control | [16] 99 % of control | [17] 91 % of control

COC(=S)c1ccc(C(=S)OC)cc1
inactive: [7] 99 % of control | [8] 105 % of control | [18] 103 % of control

O=C(CC(O)(C(F)(F)F)C(F)(F)F)c1cc(CC(=O)C(O)(C(F)(F)F)C(F)(F)F)cc(CC(=O)C(O)(C(F)(F)F)C(F)(F)F)c1
inactive: [6] 97 % of control | [7] 103 % of control | [8] 100 % of control | [18] 105 % of control | [19] 115 % of control

C[C@]12CCC(=O)C[C@H]1CC[C@@H]1[C@@H]2CC[C@@]2(C)[C@H]1CC[C@]2(C)O
inactive: [8] 90 % of control | [18] 95 % of control | [19] 100 % of control

CC(CCN(C)C)N(C)C (stereo not given)
inactive: dose: 50.0 mg/kg/injection, schedule: Q01DX005 (ip), vehicle: suspension in saline 106 % of control | dose: 100.0 mg/kg/injection, schedule: Q01DX005 (ip), vehicle: suspension in saline 98 % of control

Nc1nc(N)c2cc(CNc3ccc(Cl)c(Cl)c3)ccc2n1
inactive: [4] 107 % of control | [5] 110 % of control | [6] 109 % of control

CC(C)(C)C(CCC(=O)O)CC(=O)O (stereo not given)
inactive: [7] 100 % of control | [8] 95 % of control | dose: 100.0 mg/kg/injection, schedule: Q04DX003 (ip), vehicle: saline 95 % of control | [18] 100 % of control | dose: 200.0 mg/kg/injection, schedule: Q04DX003 (ip), vehicle: saline 91 % of control

CN1C2=C(C(=O)CC2)C(c2ccccc2)C2=C1CCC2=O
inactive: [15] 96 % of control | [16] 96 % of control | [17] 96 % of control

CC(=O)OCCSSCCOC(C)=O
inactive: [7] 107 % of control | [8] 113 % of control

c1ccc2nc(C[n+]3cccc4ccccc43)ccc2c1
inactive: dose: 3.12 mg/kg/injection, schedule: Q01DX005 (ip), vehicle: saline 105 % of control | dose: 6.25 mg/kg/injection, schedule: Q01DX005 (ip), vehicle: saline 106 % of control | dose: 12.5 mg/kg/injection, schedule: Q01DX005 (ip), vehicle: saline 109 % of control

O=C1C/C(=N\O)CON1c1ccccc1
inactive: dose: 100.0 mg/kg/injection, schedule: Q01DX002 (ip), vehicle: Klucel (hydroxypropylcellulose) (HPC) 106 % of control | dose: 200.0 mg/kg/injection, schedule: Q01DX002 (ip), vehicle: Klucel (hydroxypropylcellulose) (HPC) 98 % of control | dose: 400.0 mg/kg/injection, schedule: Q01DX002 (ip), vehicle: Klucel (hydroxypropylcellulose) (HPC) 90 % of control

COC(=O)CCSC(=O)NCCCCCCNC(=O)SCCC(=O)OC
inactive: [1] 98 % of control | [2] 100 % of control | [3] 98 % of control

O=[N+]([O-])c1ccc(SC2=NCCCN2)c(Cl)c1
inactive: [7] 102 % of control | [8] 100 % of control | [18] 105 % of control

C[N+]12OC3CCC(O)CC1CCCC2C3 (stereo not given)
inactive: dose: 100.0 mg/kg/injection, schedule: Q01DX001 (ip), vehicle: water 100 % of control

O=c1c2c(oc3ccccc13)Oc1oc3ccccc3c(=O)c1C2c1ccc2c(c1)OCO2
inactive: dose: 15.0 mg/kg/injection, schedule: Q01DX005 (ip), vehicle: saline with Tween-80 96 % of control | dose: 30.0 mg/kg/injection, schedule: Q01DX005 (ip), vehicle: saline with Tween-80 92 % of control and 96 % of control | [9] 91 % of control

Clc1nc(C(Cl)Cl)nc2sc3c(c12)CCCC3
inactive: [9] 98 % of control | [10] 94 % of control | [11] 96 % of control

CC(O)CN1C(=O)c2cccc3cc([N+](=O)[O-])cc(c23)C1=O (stereo not given)
inactive: [12] 96 % of control | [13] 104 % of control | [14] 104 % of control

Cc1cccc(Nc2nnc3nc(-c4ccccc4)c(-c4ccccc4)nn23)c1
inactive: dose: 25.0 mg/kg/injection, schedule: Q01DX001 (ip), vehicle: saline with Tween-80 94 % of control | dose: 50.0 mg/kg/injection, schedule: Q01DX001 (ip), vehicle: saline with Tween-80 100 % of control | [15] 91 % of control and 95 % of control

Cc1ccc2nc(C[n+]3cccc4ccccc43)ccc2c1
inactive: dose: 0.38 mg/kg/injection, schedule: Q01DX005 (ip), vehicle: saline 107 % of control | dose: 0.75 mg/kg/injection, schedule: Q01DX005 (ip), vehicle: saline with Tween-80 113 % of control | dose: 0.75 mg/kg/injection, schedule: Q01DX005 (ip), vehicle: saline 115 % of control and 122 % of control | dose: 1.5 mg/kg/injection, schedule: Q01DX005 (ip), vehicle: saline with Tween-80 115 % of control | dose: 1.5 mg/kg/injection, schedule: Q01DX005 (ip), vehicle: saline 116 % of control | dose: 3.0 mg/kg/injection, schedule: Q01DX005 (ip), vehicle: saline with Tween-80 100 % of control | dose: 3.0 mg/kg/injection, schedule: Q01DX005 (ip), vehicle: saline 114 % of control and 116 % of control | dose: 3.12 mg/kg/injection, schedule: Q01DX005 (ip), vehicle: saline with Tween-80 117 % of control

c1ccc2cc(N3CCOCC3)ccc2c1
inactive: [8] 116 % of control | [18] 119 % of control | [19] 116 % of control

CCOC(=O)c1c[nH]c2c(OC)ccc(OC)c2c1=O
inactive: [12] 99 % of control | [13] 100 % of control | [14] 100 % of control

O=c1[nH]nc2c3cccc4cccc(c5ccc(O)c1c52)c43
inactive: dose: 60.0 mg/kg/injection, schedule: Q01DX005 (ip), vehicle: Klucel (hydroxypropylcellulose) (HPC) 103 % of control | dose: 120.0 mg/kg/injection, schedule: Q01DX005 (ip), vehicle: Klucel (hydroxypropylcellulose) (HPC) 97 % of control | dose: 240.0 mg/kg/injection, schedule: Q01DX005 (ip), vehicle: Klucel (hydroxypropylcellulose) (HPC) 97 % of control

Cc1cc(C)nc(NCCCNc2nc(C)cc(C)n2)n1
inactive: [1] 101 % of control | [2] 98 % of control | [3] 100 % of control

CC1(C)OCC(C2OC3OC(C)(C)OC3C2(O)/C(N)=N/O)O1 (stereo not given)
inactive: dose: 100.0 mg/kg/injection, schedule: Q04DX002 (ip), vehicle: saline 103 % of control | dose: 200.0 mg/kg/injection, schedule: Q04DX002 (ip), vehicle: saline 112 % of control | dose: 400.0 mg/kg/injection, schedule: Q04DX002 (ip), vehicle: saline 122 % of control

O=C(NC(=O)c1cccc2ccccc12)NC(=S)c1ccc(Br)cc1
inactive: dose: 12.5 mg/kg/injection, schedule: Q01DX001 (ip), vehicle: saline 101 % of control | dose: 25.0 mg/kg/injection, schedule: Q01DX001 (ip), vehicle: saline 101 % of control | dose: 50.0 mg/kg/injection, schedule: Q01DX001 (ip), vehicle: saline 101 % of control

S=C(Nc1ccccc1)P(c1ccccc1)c1ccccc1.[Ir]
inactive: [1] 90 % of control | [2] 99 % of control | [3] 97 % of control

CSc1nc(C#N)c(N)s1
inactive: [9] 101 % of control | [10] 95 % of control | [11] 95 % of control

NCCOc1c2occc2cc2ccc(=O)oc12
inactive: dose: 100.0 mg/kg/injection, schedule: Q01DX001 (ip), vehicle: saline 110 % of control
